Results reported in publication PMC9306949 (Clinical Pharmacology in Drug Development, 2022).
“Also recorded” adds a separate entry of the source. Like-named read-outs stand apart in the source and are kept apart here. Marks after values point to notes of the source that are not given here.

Columns and labels:
[1] = cited from earlier work
[2] = assay type: in vivo, human; settings: for M/P (AUC0‐t), metabolite-to-parent ratio / AUC0‐24 / AUC0‐inf / AUC0‐t / C24 / Cmax: mean (%CV); for t1/2 / AUC0‐24 / AUC0‐inf / AUC0‐t / C24 / Cmax / tmax: plasma; for t1/2: arithmetic mean (%CV); for tmax: median (min-max)
[3] = cited from earlier work; remark: listed apart in the source
[4] = Urine excretion of navtemadlin and M1; assay type: in vivo, human
[5] = patients with solid tumors or multiple myeloma
[6] = Treatment A (reference): new tablet fasted, drug-load analysis
[7] = Treatment A (reference): new tablet fasted, food-effect analysis
[8] = Treatment B (test 1): new tablet fed, food-effect analysis
[9] = Treatment B: 60-mg new tablet, fed (high-fat meal)
[10] = Treatment C (test 2): old tablet fasted, drug-load analysis
[11] = Treatment C: 60-mg old tablet, fasted
[12] = Treatment A: 60-mg new tablet, fasted
[13] = test/reference: B (new tablet fed) vs A (new tablet fasted)
[14] = test/reference: C (old tablet fasted) vs A (new tablet fasted)
[15] = period 1 (old tablet fasted), 0-48 h urine

## CC(C)[C@@H](CS(=O)(=O)C(C)C)N1C(=O)[C@@](C)(CC(=O)O[C@@H]2O[C@H](C(=O)O)[C@@H](O)[C@H](O)[C@H]2O)C[C@H](c2cccc(Cl)c2)[C@H]1c1ccc(Cl)cc1 [M1, navtemadlin acyl glucuronide]
[1]; 7‐day once‐daily dosing period, patients
  mean accumulation: < 2 fold
[1]; [5]
  mean (SD) terminal half‐life (t1/2): 14.0 (6.07) hours
  mean metabolite‐to‐parent 24‐hour AUC ratio: 0.461
  mean tmax: 2 to 4 h
[2]; Treatment A (reference): new tablet fasted, average of 2, drug-load analysis
  tmax, median: 2.5 ^d h
[2]; Treatment A (reference): new tablet fasted, average of 2, food-effect analysis
  tmax, median: 2.5 ^d h
[2]; [6]
  AUC0‐24, GLSM: 528, N = 30 ng • h/mL
  AUC0‐inf, GLSM: 701, N = 28 ng • h/mL
  AUC0‐t, GLSM: 646, N = 30 ng • h/mL
  Cmax, GLSM: 98, N = 30 ng/mL
[2]; [7]
  AUC0‐24, GLSM: 528, N = 30 ng • h/mL
  AUC0‐inf, GLSM: 710, N = 28 ng • h/mL
  AUC0‐t, GLSM: 646, N = 30 ng • h/mL
  Cmax, GLSM: 98, N = 30 ng/mL
[2]; Treatment A, n = 16 vs n = 12
  exposure in UGT1A1*28 heterozygous poor metabolizers (6/7 TA repeats) vs WT (6/6 TA repeats): generally comparable
[2]; [8]
  AUC0‐24, GLSM: 465, N = 30 ng • h/mL
  AUC0‐inf, GLSM: 610, N = 22 ng • h/mL
  AUC0‐t, GLSM: 555, N = 30 ng • h/mL
  Cmax, GLSM: 117, N = 30 ng/mL
  tmax, median: 3.0 ^d h
[2]; [9]
  M/P (AUC0‐t), metabolite-to-parent ratio: 0.2 (38.3); 30
  AUC0‐24: 532 (56.0); 30 ng • h/mL
  AUC0‐inf: 824 (61.1); 22 ng • h/mL
  AUC0‐t: 666 (65.8); 30 ng • h/mL
  C24: 5.96 (87.8); 30 ng/mL
  Cmax: 133 (52.6); 30 ng/mL
  tmax: 3.00 (0.99 ‐ 4.02); 30 h
[2]; [10]
  AUC0‐24, GLSM: 506, N = 30 ng • h/mL
  AUC0‐inf, GLSM: 643, N = 26 ng • h/mL
  AUC0‐t, GLSM: 585, N = 30 ng • h/mL
  Cmax, GLSM: 84, N = 30 ng/mL
  tmax, median: 2.0 ^d h
[2]; [11]
  M/P (AUC0‐t), metabolite-to-parent ratio: 0.2 (34.3); 30
  t1/2: 13.7 (68.5); 26 h
  AUC0‐24: 609 (68.6); 30 ng • h/mL
  AUC0‐inf: 794 (71.6); 26 ng • h/mL
  AUC0‐t: 740 (77.5); 30 ng • h/mL
  C24: 7.04 (109.6); 30 ng/mL
  Cmax: 101 (65.3); 30 ng/mL
  tmax: 2.01 (1.00 – 6.00); 30 h
[2]; after correction for molecular weight, across study groups
  acyl glucuronide to parent drug AUC0‐t ratio: ≈ 0.2
[2]; all 3 treatments
  time of second peak after dosing (enterohepatic recirculation): around 10 hours
[2]; n = 12 positive vs n = 18 negative
  PK in H. pylori–positive vs H. pylori–negative subjects: not markedly affected
[2]; new tablet fed vs fasted
  decrease in extent of exposure (AUC0‐24, AUC0‐t, AUC0‐inf) with a high‐fat meal: 12% to 18%
  increase in Cmax with a high‐fat meal: ≈ 18%; also recorded: ≈ 20%
[2]; new tablet, Wilcoxon signed-rank, alpha level of 0.1
  difference in median tmax between fed and fasted conditions, significance: not significant
[2]; [12]
  t1/2: 16.2 (57.8); 46 h
  AUC0‐24: 607 (60.9); 60 ng • h/mL
  AUC0‐inf: 849 (74.1); 46 ng • h/mL
  AUC0‐t: 782 (72.2); 60 ng • h/mL
  C24: 7.82 (97.4); 60 ng/mL
  Cmax: 118 (70.0); 60 ng/mL
  tmax: 2.02 (1.00 – 6.00); 60 h
[2]; test-reference: B (new tablet fed) minus A (new tablet fasted)
  tmax, difference of medians (90%CI): 0.4 (‐0.002‐0.8) ^e , ^g h
[2]; test-reference: C (old tablet fasted) minus A (new tablet fasted)
  tmax, difference of medians (90%CI): 0.1 (–0.3 to 0.6) ^e , ^g h
[2]; [13]
  AUC0‐24, % ratio of least squares means (90%CI): 88.2 (82.2‐94.6) %
  AUC0‐inf, % ratio of least squares means (90%CI): 86.0 (77.5‐95.4) %
  AUC0‐t, % ratio of least squares means (90%CI): 85.9 (79.9‐92.3) %
  Cmax, % ratio of least squares means (90%CI): 118.7%
[2]; [14]
  AUC0‐24, % ratio of least squares means (90%CI): 95.8 (89.4‐102.7) %
  AUC0‐inf, % ratio of least squares means (90%CI): 91.8 (85.3 to 98.6) %
  AUC0‐t, % ratio of least squares means (90%CI): 90.6 (84.2 to 97.6) %
  Cmax, % ratio of least squares means (90%CI): 85.7 (77.9‐94.2) %
[3]; rat bile
  share of excreted biliary radioactivity: accounts for most of the excreted biliary radioactivity
[3]; rat feces, hydrolysis in the intestine
  presence in feces: not present in rat feces
[4]; [15]
  mean amount excreted in urine: 17.3 µg
  mean fraction of dose excreted in urine: 0.02%
[4]; single 60-mg dose, healthy subjects
  urine excretion: negligible
